# In patent US10449135B2, “Solublizing agents for UV filters in cosmetic formulations” (BASF SE, priority 2014, dated 2019):
# Assay: Solubility tests of UV filters in the solubilizing agent
# Type: physicochemical
# Conditions: solvent: morpholine amide of formula (AM-01); stirred seven days at 25° C.; concentration by UV/Vis-spectrometry
# Experimental: 2 ml of the solubilizing agent are filled into a 20 ml vial with cap. Afterwards 0.02 g (1%) of the respective substance (UV Filter) are weighed and added to the solvent. The vial is placed into a thermostat-controlled water bath, wherein the suspension/solution is stirred during seven days at 25° C. If the amount of substance put into the solubilizing agent is fully soluble, additional substance is added until precipitation can be observed. After seven days, the sample is centrifuged for 30 minutes at 13000 rpm at 25° C. The supernatant is transferred into a small beaker. In case the sample is still turbid, it is filtered through a 0.2 μm non-steril Membrex 25 PET filter. Clear solutions must not be filtered. When a clear solution is obtained, the concentration of the substance is determined with UV/Vis-spectrometry. For this purpose the sample may be diluted with a suitable solvent or, in case of lower concentrations, may be measured as is. In order to evaluate the concentration from the UV-spectroscopic results, the extinction coefficient is needed, which is determined independently with a solvent of similar polarity like that one used for dilution of the saturated solutions. The solubility can be calculated using the equation of the Lambert-Beer-Law.
row,Solubility of UV filter in solubilizing agent [%],Structure (SMILES)
1,>40,CCCCCCOC(=O)c1ccccc1C(=O)c1ccc(N(CC)CC)cc1O [BPH-02]
2,15,CCCCC(CC)COc1ccc(-c2nc(-c3ccc(OC)cc3)nc(-c3ccc(OCC(CC)CCCC)cc3O)n2)c(O)c1 (stereo not drawn) [HTP-02]
3,45,CCCCC(CC)COC(=O)c1ccc(Nc2nc(Nc3ccc(C(=O)OCC(CC)CCCC)cc3)nc(Nc3ccc(C(=O)OCC(CC)CCCC)cc3)n2)cc1 (stereo not drawn) [TAT-02]
